The species entered for one assay is Rattus norvegicus. The assay can be described thus: Cardiovascular activity in rat ventricular trabeculae assessed as increase in calcium sensitivity of force development at 50 uM. In kind it is functional.
The species entered for the next assay is Bos taurus. The experiment in a line: Modulation of bovine cardiac myofibrils ATPase activity at 50 uM relative to control. As to conditions: filed as modulator.
Assay [1] can be described thus: Binding affinity to CTNI-CTNC N-domain chimera (unknown origin) assessed as dissociation constant. Details: species or system Homo sapiens.

The source made the active and inactive calls. No cut-off for these calls is given here.

One may read the Kd as the constant that tells how readily two partners part at equilibrium. As to `NCCCCCCNS(=O)(=O)c1cccc(-c2ccc(F)cc2F)c1`, the result in the assay filed under Rattus norvegicus was Active. In the assay filed under Bos taurus, this compound gave an Activity of 30%. Moreover, the dissociation constant Kd in assay [1] turned out to be 200 µM.

In the assay listed under Bos taurus, `NCCCCCCCCNS(=O)(=O)c1cccc(-c2ccc(F)cc2F)c1` showed an Activity of 30%. For the same compound, in assay [1], the Kd worked out at 60 µM.

As for `NCCCCCCCNS(=O)(=O)c1cccc(-c2ccc(F)cc2F)c1`, in the assay listed under Bos taurus, the Activity came to 30%. The Kd in assay [1] was 120 µM.

Take `NCCCCCCNS(=O)(=O)c1cccc2c(Cl)cccc12`: in assay [1], the equilibrium dissociation constant (Kd) came to 470 µM.

Source of the values: ChEMBL document CHEMBL5252658, “Conversion of a Cardiac Muscle Modulator from an Inhibitor to an Activator” (ACS Med Chem Lett, 2023).
